pIC50: −log10 of the molar value. Where a SMILES comes first, the peptide text is derived from it. The star is where a group is joined. Farnesyl = CC(C)=CCC/C(C)=C/CC/C(C)=C/C*; Boc = CC(C)(C)OC(=O)*; CHN2 = [N-]=[N+]=C*; CH2Cl = ClC*

One experiment concerns NALM-6. As to the kind of experiment: Anti-leukemic activity against Nalm-6 (B-lineage ALL) human acute lymphoblastic leukemia (ALL) cell line. It counts as functional, cell-based.
In the next experiment the test system is MOLT-3. Kind of experiment: Anti-leukemic activity against Molt-3 (T-lineage ALL) human acute lymphoblastic leukemia (ALL) cell line. The experiment is classed as functional, cell-based.

In the case of `CC(=O)N[C@@H](CSC/C=C(\C)CCC=C(C)C)C(=O)C=[N+]=[N-]`, the pIC50 with NALM-6 and in the experiment with MOLT-3 was less than 4.00 throughout.
Take `CC(=O)N[C@@H](CSC/C=C(\C)CC/C=C(\C)CCC=C(C)C)C(=O)C=[N+]=[N-]`: the values for the pIC50 in the experiment on NALM-6 and in the experiment with MOLT-3 were 4.52 and 4.49, respectively.
As to `CC(C)=CCC/C(C)=C/CC/C(C)=C/CSC[C@H](NC(=O)OC(C)(C)C)C(=O)CCl`, the figures for the pIC50 in the experiment with NALM-6 and in the experiment with MOLT-3 were 4.97 and 5.11, respectively.
In the case of `CCCCCCCCCCCCSC[C@H](NC(C)=O)C(=O)C=[N+]=[N-]`, the pIC50 (as a rule, the negative decadic logarithm of the IC50, by convention in mol/L) was 4.81 with NALM-6 and 4.64 with MOLT-3.
On to `CC(=O)N[C@@H](CSC/C=C(\C)CC/C=C(\C)CCC=C(C)C)C(=O)CCl`, for which the pIC50 with NALM-6 is 5.52; in the experiment on MOLT-3, 5.85.
For the compound `CC(=O)N[C@@H](CSCC=C(C)C)C(=O)CCl`, the pIC50 is 4.90 in the experiment with NALM-6 and 5.10 with MOLT-3.
For the compound `CC(=O)N[C@@H](CSC/C=C(\C)CCC=C(C)C)C(=O)CCl`, the pIC50 in the experiment with NALM-6 and with MOLT-3 was less than 4.00 each time.
Turning to `CCCCCCCCCCCCSC[C@H](NC(=O)OC(C)(C)C)C(=O)CCl`, the pIC50 in the experiment with NALM-6 is 4.82; with MOLT-3, 4.81.
On to `CC(C)=CCC/C(C)=C/CC/C(C)=C/CSCCC(=O)CCl`, for which the values for the pIC50 with NALM-6 and in the experiment with MOLT-3 were 4.39 and 4.45, respectively.
`CC(C)=CCC/C(C)=C/CC/C(C)=C/CSCC(=O)CCl`: the pIC50 in the experiment with NALM-6 was 4.07; in the experiment with MOLT-3, less than 4.00.
Regarding `CC(C)=CCC/C(C)=C/CC/C(C)=C/CSC[C@H](NC(=O)OC(C)(C)C)C(=O)C=[N+]=[N-]`, the negative logarithm of the IC50 (pIC50) with NALM-6 and with MOLT-3 was 4.30 each time.
Regarding `CC(=O)N[C@@H](CSCC=C(C)C)C(=O)C=[N+]=[N-]`, the pIC50 in the experiment with NALM-6 and with MOLT-3 was less than 4.00 throughout.
Regarding `CCCCCCCCCCCCSC[C@H](NC(C)=O)C(=O)CCl`, the pIC50 in the experiment on NALM-6 is 5.70; with MOLT-3, 5.64.
On to `CCCCCCCCCCCCSC[C@H](N)C(=O)CCl`, for which the pIC50 in the experiment with NALM-6 is 4.75; in the experiment with MOLT-3, 4.90.
With `CC(C)=CCC/C(C)=C/CC/C(C)=C/CSC[C@H](NC(=O)CNC(=O)OC(C)(C)C)C(=O)CCl` (Boc-Gly-Cys(Farnesyl)-CH2Cl), the pIC50 in the experiment on NALM-6 is 4.89; in the experiment on MOLT-3, 4.76.
Turning to `CC(C)=CCC/C(C)=C/CC/C(C)=C/CSC[C@H](NC(=O)CNC(=O)OC(C)(C)C)C(=O)C=[N+]=[N-]` (Boc-Gly-Cys(Farnesyl)-CHN2), the pIC50 is 4.29 with NALM-6 and 4.07 in the experiment on MOLT-3.

The record behind these values is ChEMBL document CHEMBL1133035, “Cysteine chloromethyl and diazomethyl ketone derivatives with potent anti-leukemic activity” (Bioorg Med Chem Lett, 2000).
